The values below come from patent publication US20240228481A1, “NOVEL SULFONAMIDE SERIES OF QR2 INHIBITORS TO TACKLE OXIDATIVE STRESS AND COGNITIVE DECLINE” (CARMEL HAIFA UNIVERSITY ECONOMIC CORPORATION LTD., priority 2021, published 2024).

In data set [1] the test system is 5×FAD mice. Briefly: Weight, drinking rate and wellbeing of 5×FAD mice under treatment in drinking water. The conditions noted are these: for average weight: 25 days, drinking water.
The nature of a further data set: Solubility in water. It is filed as physicochemical. The conditions noted are these: HCl salt. The source says:
In order to enable water-solubility so that an inhibitor could be easily applied to crystalized QR2, and to enable oral administration of the inhibitor and eliminate undesirable formulations, HCl was conjugated to YB-537 (see step 6 in methods section ‘Synthesis of Novel QR2 Inhibitors’ and Table 3). […] Using the water-soluble YB-537 to determine ligand-target interactions, purified human QR2 was co-crystalized in the presence of the inhibitor (FIG. 3A). […] YB-537 is bound to each of the monomers, and interacts with amino acids from both monomers, as well as with FAD. The plane of YB-537 stacks up parallel to the isoalloxazine ring of the FAD and the average distance between the planes of the two rings is 3.5 Å. Each FAD moiety forms 17 contacts within 3.5 Å to atoms from YB-537 and 48 contacts to 17 amino acids from one monomer, namely—H12, S17, F18, N19, S21, P103, L104, Y105, W106, F107, T148, T149, G150, G151, Y156, E194, and R201. YB-537 binds to the catalytic site through a series of hydrophobic and hydrogen bonds with both FAD and amino acids from both QR2 monomers, in a manner unique to it (FIG. 3B). Specifically, YB-537 forms 6 contacts to G150, G151, M155 and a hydrogen bond with N162 from one monomer (A) and 8 contacts to F127, 1129, F132, and F179 from the other monomer (B).

The test system of data set [2] is 5×FAD mice. The data set can be described thus: Delay fear conditioning in 5×FAD mice.
Procedure: Mice are transported to the conditioning room, which is lit by red light only, and kept there for 2 min. They were then placed inside a Habitest Operant Cage, within a Habitest Isolation Cubicle (Coulbourn), on a modular shock floor made of 16 metal grids, connected to Precision Animal Shockers (Coulbourn) with illumination inside the cage coming from a 20 W bulb. The mice were given 2 min to explore, during which baseline freezing was measured. Then, a 20 s, 4 kHz, 80 dB tone was given, co-terminating with the start of a 2 s, 0.5 mA foot-shock, which was repeated a further two times, each having 1 min interval. Following the third, and last of these bouts, 1 min was given prior to the animals being removed from the chambers. The next day, the animals were returned to the room under the same conditions, and were placed back into the chambers, and freezing to the context was measured over the course of 5 min. The next day, the mice were once again returned to the conditioning room, except the room was lit with white light, while the chambers were darkened, the chamber floor was covered with a flat, smooth plastic cover, one of the walls was fitted with a paper sticker and the chamber was scented with diluted (10%) window cleaner (Sano). In this unfamiliar context, the protocol from the first day was repeated, except without the foot-shocks. Freezing for the cue was recorded during the tone. All measurements were taken with a Sentec stc-tb33usb-at camera, and analysis was performed with Freeze Frame software (Actimetrics).
The subject of the next data set is HEK293 cells. The data set can be described thus: DCFDA ROS measurement in HEK293 cells after H2O2 insult. It is filed as cell-based. The settings on record: HEK293, 2 mM H2O2, 3 h. As for the experimental part:
FIGS. 8A-8C include vertical bar graphs showing QR2 inhibition reduces QR2 activity and ROS following induction of oxidative stress in HEK293 cells. (8A) QR2 activity is seen and is inhibited within HEK293 cells, amongst others, as measured by the rate of fluorescent co-factor oxidation. (8B) HEK293 cells seeded at 25μ 10^3 cells/well in 96-well plates were treated with 2 mM H2O2 with or without increasing doses or QR2 inhibitors for 3 h. Following incubation, the cells were stained with DCFDA for 45 min, and ROS levels were measured using a fluorimeter with ex/em 485/535 nm. N=3. (8C) ROS was measured in HCT cells, and similarly to HEK293, is reduced following QR2 inhibition. […] Data presented as mean±SEM. *p<0.05, ***p<0.0005.
The cells were harvested and resuspended in 1% clear medium (DMEM—with no phenol red, supplemented with 1% FBS, 1% L-Glutamine and 1% Penicillin-Streptomycin). A sterile poly-L-lysine-coated Nunc black, 96-well, clear flat-bottomed plate (Thermo Fisher Scientific) was seeded with 25,000 cells in 100 μL per well and incubated overnight. The next day, the medium was removed, and the wells carefully washed with PBS. […] The plate was then incubated in the dark at 37° C. for 3 h, before reading in a Tecan M200 Pro florescence microplate reader, using wavelengths Ex/Em=485 nm/535 nm.

The next data set addresses T1, QR2 (Homo sapiens, UniProt P16083).
T1 sequence (P16083 1-231): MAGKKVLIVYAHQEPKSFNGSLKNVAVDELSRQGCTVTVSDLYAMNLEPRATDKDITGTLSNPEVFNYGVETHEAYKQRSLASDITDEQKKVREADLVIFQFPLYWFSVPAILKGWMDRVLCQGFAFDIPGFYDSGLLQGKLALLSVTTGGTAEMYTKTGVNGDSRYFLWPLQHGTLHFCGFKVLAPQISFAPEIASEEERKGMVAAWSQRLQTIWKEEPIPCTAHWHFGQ
The data set can be described thus: QR2 enzymatic activity assay (menadione/BNAH), absorbance readout at 350 nm. It counts as biochemical. Further details: purchased Sigma-Aldrich.

Data set [3] is described as follows: Cell toxicity assay (ATP depletion, CellTiter Glo). The settings on record: human. In general terms: Cellular ATP, detected with luciferase, serves as a proxy for viable cell number.

Where a name gives a salt, the structure may show the parent alone.

In the case of `Cc1ccc(-c2cn3cccc(C)c3n2)cc1S(=O)(=O)N1CCNCC1` [YB-537, 8-methyl-2-(4-methyl-3-(piperazin-1-ylsulfonyl)phenyl)imidazo[1,2-a]pyridine hydrochloride], in the data set with 5×FAD mice [1] (5×FAD both sexes, 50 mg/kg in drinking water), the “adverse effects during month-long treatment” value is given as “no adverse effects were seen”. In the data set on 5×FAD mice [1] (5×FAD females), the average drinking rate worked out at 0.170 ± 0.011 mL/g/day and the average weight amounted to 22.76 ± 0.192 g. In the data set with 5×FAD mice [1] (5×FAD males), the average drinking rate stood at 0.170 ± 0.035 mL/g/day and the average weight worked out at 32.56 ± 0.279 g. Further, the solubility in water entry in “Solubility in water” is listed as “complete solution”. Also, the “freezing in response to the conditioned cue” value in the data set on 5×FAD mice [2] (5×FAD both sexes) amounted to 16.47±1.689%. Moreover, in the data set on 5×FAD mice [2] (5×FAD females), the “freezing in response to the conditioned cue” value is given as 12.66±1.739%. In the data set on 5×FAD mice [2] (5×FAD males), the “baseline freezing in conditioning chambers” value worked out at 0.642±0.408%, the “freezing in response to the conditioned context” value was 39.51±2.666% and the “freezing in response to the conditioned cue” value is 19.43±2.289%.
On to `Cc1cccn2cc(-c3cccc(S(=O)(=O)N4CCC(C)CC4)c3)nc12` [YB-800], for which the “ROS levels after ROS insult (DCFDA)” value in the data set with HEK293 cells was “reduced in a dose dependent manner”. Besides, half-maximal inhibition against QR2 (IC50) required 0.02 µM. Besides, it took 78.4 µM to reach half-maximal inhibition in data set [3] (IC50 at 72 h).
